Assay results: ChEMBL document CHEMBL4507264, “Data for DCP probe BAY-7598” (2021)
Active and inactive are the calls of the source. The calls are words filed in the database; no cut-off is given here.

What was measured:
[1] = target: Macrophage metalloelastase (Homo sapiens, UniProt P39900); assay: Biochemical assay (MMP12)
[2] = tested on: Tyrosine-protein kinase ABL1 (Homo sapiens), P00519 [M351T]; conditions: Compound concentration 1000.0 nM
[3] = target: Activin receptor type-2A (Homo sapiens) (UniProt P27037); conditions: Compound concentration 1000.0 nM
[4] = target: Activin receptor type-1-like (Homo sapiens) (UniProt P37023); conditions: Compound concentration 1000.0 nM
[5] = target: Atypical kinase COQ8A, mitochondrial (Homo sapiens) (UniProt Q8NI60); conditions: Compound concentration 1000.0 nM
Sequence of Atypical kinase COQ8A, mitochondrial (Homo sapiens) (Q8NI60 163-647 limits assumed): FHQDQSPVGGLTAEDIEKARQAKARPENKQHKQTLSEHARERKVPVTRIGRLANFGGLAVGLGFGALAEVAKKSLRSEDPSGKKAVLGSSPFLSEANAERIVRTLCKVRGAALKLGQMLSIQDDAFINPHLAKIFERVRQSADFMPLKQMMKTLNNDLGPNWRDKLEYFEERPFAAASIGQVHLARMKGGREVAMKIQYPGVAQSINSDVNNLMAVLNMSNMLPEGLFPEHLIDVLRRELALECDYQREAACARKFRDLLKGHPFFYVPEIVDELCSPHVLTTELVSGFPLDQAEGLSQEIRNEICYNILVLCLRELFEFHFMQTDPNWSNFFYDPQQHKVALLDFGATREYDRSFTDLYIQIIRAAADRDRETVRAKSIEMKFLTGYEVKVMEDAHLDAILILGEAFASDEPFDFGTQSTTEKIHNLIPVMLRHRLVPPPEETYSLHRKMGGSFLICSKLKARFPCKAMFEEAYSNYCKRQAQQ

[6] = tested on: ALK tyrosine kinase receptor (Homo sapiens), Q9UM73 [L1196M]; conditions: Compound concentration 1000.0 nM
[7] = target: 5'-AMP-activated protein kinase catalytic subunit alpha-1 (Homo sapiens) (UniProt Q13131); conditions: Compound concentration 1000.0 nM
[8] = target: Aurora kinase A (Homo sapiens) (UniProt O14965); conditions: Compound concentration 1000.0 nM
[9] = tested on: Epidermal growth factor receptor (Homo sapiens), P00533 [G719C]; conditions: Compound concentration 1000.0 nM
[10] = target: Ephrin type-A receptor 5 (Homo sapiens) (UniProt P54756); conditions: Compound concentration 1000.0 nM
Sequence of Ephrin type-A receptor 5 (Homo sapiens) (P54756 whole entry): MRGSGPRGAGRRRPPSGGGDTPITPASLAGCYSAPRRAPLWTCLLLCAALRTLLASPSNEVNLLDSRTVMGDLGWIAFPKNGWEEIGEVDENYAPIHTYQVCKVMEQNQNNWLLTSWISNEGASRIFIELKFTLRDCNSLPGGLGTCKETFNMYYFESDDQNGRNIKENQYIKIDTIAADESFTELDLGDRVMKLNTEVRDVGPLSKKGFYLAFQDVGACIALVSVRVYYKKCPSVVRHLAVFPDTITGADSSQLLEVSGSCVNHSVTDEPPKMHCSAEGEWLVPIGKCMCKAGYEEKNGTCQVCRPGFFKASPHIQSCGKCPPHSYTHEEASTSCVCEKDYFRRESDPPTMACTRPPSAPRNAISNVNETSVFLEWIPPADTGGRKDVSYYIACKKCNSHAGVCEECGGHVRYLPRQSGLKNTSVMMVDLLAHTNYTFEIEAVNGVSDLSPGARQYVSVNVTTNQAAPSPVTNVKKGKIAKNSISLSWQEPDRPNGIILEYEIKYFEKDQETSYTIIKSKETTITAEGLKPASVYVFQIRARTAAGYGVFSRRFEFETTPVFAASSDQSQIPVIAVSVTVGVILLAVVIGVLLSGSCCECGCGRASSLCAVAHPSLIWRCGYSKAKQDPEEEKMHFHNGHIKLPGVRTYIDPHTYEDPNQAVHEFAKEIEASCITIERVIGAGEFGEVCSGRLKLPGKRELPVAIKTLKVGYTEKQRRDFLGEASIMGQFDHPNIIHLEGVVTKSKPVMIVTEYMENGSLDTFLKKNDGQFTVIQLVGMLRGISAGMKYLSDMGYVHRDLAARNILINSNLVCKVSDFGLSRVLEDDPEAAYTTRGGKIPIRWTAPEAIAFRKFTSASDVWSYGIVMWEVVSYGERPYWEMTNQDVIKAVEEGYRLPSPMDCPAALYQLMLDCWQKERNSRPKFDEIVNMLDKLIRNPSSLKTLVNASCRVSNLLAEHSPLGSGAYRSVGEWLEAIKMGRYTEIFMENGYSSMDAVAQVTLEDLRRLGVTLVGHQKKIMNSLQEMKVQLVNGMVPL

[11] = target: Mitogen-activated protein kinase 6 (Homo sapiens) (UniProt Q16659); conditions: Compound concentration 1000.0 nM
[12] = target: Mitogen-activated protein kinase 7 (Homo sapiens) (UniProt Q13164); conditions: Compound concentration 1000.0 nM
[13] = target: Tyrosine-protein kinase Fer (Homo sapiens) (UniProt P16591); conditions: Compound concentration 1000.0 nM
[14] = tested on: Receptor-type tyrosine-protein kinase FLT3 (Homo sapiens), P36888 [K663Q]; conditions: Compound concentration 1000.0 nM
[15] = target: Tyrosine-protein kinase FRK (Homo sapiens) (UniProt P42685); conditions: Compound concentration 1000.0 nM
Sequence of Tyrosine-protein kinase FRK (Homo sapiens) (P42685 whole entry): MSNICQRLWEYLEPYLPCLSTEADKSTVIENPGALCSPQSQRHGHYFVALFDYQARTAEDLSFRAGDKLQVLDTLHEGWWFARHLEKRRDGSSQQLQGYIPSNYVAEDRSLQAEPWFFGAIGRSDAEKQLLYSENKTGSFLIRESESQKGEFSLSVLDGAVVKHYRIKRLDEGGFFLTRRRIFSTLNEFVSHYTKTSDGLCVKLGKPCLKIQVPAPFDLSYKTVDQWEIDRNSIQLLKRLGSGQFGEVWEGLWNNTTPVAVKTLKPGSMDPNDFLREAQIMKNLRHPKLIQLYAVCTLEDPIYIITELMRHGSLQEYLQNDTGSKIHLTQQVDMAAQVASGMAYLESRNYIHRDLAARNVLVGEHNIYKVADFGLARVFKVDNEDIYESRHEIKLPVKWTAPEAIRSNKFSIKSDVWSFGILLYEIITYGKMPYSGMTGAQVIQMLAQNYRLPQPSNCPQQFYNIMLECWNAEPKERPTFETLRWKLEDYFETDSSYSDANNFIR

[16] = target: G protein-coupled receptor kinase 4 (Homo sapiens) (UniProt P32298); conditions: Compound concentration 1000.0 nM
[17] = target: Homeodomain-interacting protein kinase 3 (Homo sapiens) (UniProt Q9H422); conditions: Compound concentration 1000.0 nM
[18] = target: Homeodomain-interacting protein kinase 4 (Homo sapiens) (UniProt Q8NE63); conditions: Compound concentration 1000.0 nM
[19] = target: Tyrosine-protein kinase JAK3 (Homo sapiens) (UniProt P52333); conditions: Compound concentration 1000.0 nM
[20] = target: Tyrosine-protein kinase Lck (Homo sapiens) (UniProt P06239); conditions: Compound concentration 1000.0 nM
[21] = target: Mitogen-activated protein kinase kinase kinase 13 (Homo sapiens) (UniProt O43283); conditions: Compound concentration 1000.0 nM
[22] = target: Mitogen-activated protein kinase kinase kinase 2 (Homo sapiens) (UniProt Q9Y2U5); conditions: Compound concentration 1000.0 nM
[23] = target: Serine/threonine-protein kinase MARK1 (Homo sapiens) (UniProt Q9P0L2); conditions: Compound concentration 1000.0 nM
[24] = target: Dual specificity mitogen-activated protein kinase kinase 4 (Homo sapiens) (UniProt P45985); conditions: Compound concentration 1000.0 nM
Sequence of Dual specificity mitogen-activated protein kinase kinase 4 (Homo sapiens) (P45985 whole entry): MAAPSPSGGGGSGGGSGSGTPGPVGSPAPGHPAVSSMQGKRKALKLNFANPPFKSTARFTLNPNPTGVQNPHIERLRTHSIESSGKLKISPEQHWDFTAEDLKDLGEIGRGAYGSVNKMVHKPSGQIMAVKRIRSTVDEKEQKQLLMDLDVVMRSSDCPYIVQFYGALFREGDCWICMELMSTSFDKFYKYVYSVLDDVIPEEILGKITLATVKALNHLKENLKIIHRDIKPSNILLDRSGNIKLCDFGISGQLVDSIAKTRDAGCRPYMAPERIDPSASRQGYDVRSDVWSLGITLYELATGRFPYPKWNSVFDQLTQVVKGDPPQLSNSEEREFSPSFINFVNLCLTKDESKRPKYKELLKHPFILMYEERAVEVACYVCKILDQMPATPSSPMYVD

[25] = target: Dual specificity mitogen-activated protein kinase kinase 6 (Homo sapiens) (UniProt P52564); conditions: Compound concentration 1000.0 nM
[26] = target: Hepatocyte growth factor receptor (Homo sapiens) (UniProt P08581); conditions: Compound concentration 1000.0 nM
[27] = target: Misshapen-like kinase 1 (Homo sapiens) (UniProt Q8N4C8); conditions: Compound concentration 1000.0 nM
[28] = target: Serine/threonine-protein kinase 4 (Homo sapiens) (UniProt Q13043); conditions: Compound concentration 1000.0 nM
[29] = target: Serine/threonine-protein kinase 3 (Homo sapiens) (UniProt Q13188); conditions: Compound concentration 1000.0 nM
[30] = target: Calcium-dependent protein kinase 1 (Plasmodium falciparum) (UniProt P62344); conditions: Compound concentration 1000.0 nM
[31] = target: Serine/threonine-protein kinase PLK2 (Homo sapiens) (UniProt Q9NYY3); conditions: Compound concentration 1000.0 nM
[32] = target: Serine/threonine-protein kinase D3 (Homo sapiens) (UniProt O94806); conditions: Compound concentration 1000.0 nM
[33] = target: cGMP-dependent protein kinase 2 (Homo sapiens) (UniProt Q13237); conditions: Compound concentration 1000.0 nM
[34] = target: Ribosomal protein S6 kinase alpha-4 (Homo sapiens) (UniProt O75676); conditions: Compound concentration 1000.0 nM
[35] = target: Ribosomal protein S6 kinase alpha-5 (Homo sapiens) (UniProt O75582); conditions: Compound concentration 1000.0 nM
Sequence of Ribosomal protein S6 kinase alpha-5 (Homo sapiens) (O75582 whole entry, looked up): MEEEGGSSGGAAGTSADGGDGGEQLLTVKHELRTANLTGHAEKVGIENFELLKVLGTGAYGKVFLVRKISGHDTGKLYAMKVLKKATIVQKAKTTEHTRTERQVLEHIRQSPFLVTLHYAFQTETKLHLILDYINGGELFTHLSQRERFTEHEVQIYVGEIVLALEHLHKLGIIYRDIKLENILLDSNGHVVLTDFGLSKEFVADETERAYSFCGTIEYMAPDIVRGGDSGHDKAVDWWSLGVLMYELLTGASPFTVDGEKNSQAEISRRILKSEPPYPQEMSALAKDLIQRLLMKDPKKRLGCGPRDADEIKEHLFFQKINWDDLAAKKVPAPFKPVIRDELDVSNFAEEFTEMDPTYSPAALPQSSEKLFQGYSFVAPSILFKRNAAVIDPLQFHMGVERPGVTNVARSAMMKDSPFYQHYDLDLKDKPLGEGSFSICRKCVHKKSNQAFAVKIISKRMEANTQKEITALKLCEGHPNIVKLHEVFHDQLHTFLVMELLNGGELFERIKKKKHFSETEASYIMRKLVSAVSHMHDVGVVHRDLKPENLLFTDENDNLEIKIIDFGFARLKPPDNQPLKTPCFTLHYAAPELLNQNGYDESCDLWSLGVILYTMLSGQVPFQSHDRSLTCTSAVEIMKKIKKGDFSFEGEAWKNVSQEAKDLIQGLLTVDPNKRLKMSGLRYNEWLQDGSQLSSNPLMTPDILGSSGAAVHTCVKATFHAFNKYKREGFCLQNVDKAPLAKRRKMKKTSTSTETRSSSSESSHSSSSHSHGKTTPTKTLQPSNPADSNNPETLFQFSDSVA

[36] = target: Ribosomal protein S6 kinase alpha-1 (Homo sapiens) (UniProt Q15418); conditions: Compound concentration 1000.0 nM
[37] = target: Tyrosine-protein kinase SYK (Homo sapiens) (UniProt P43405); conditions: Compound concentration 1000.0 nM
[38] = target: Dual specificity protein kinase TTK (Homo sapiens) (UniProt P33981); conditions: Compound concentration 1000.0 nM
Sequence of Dual specificity protein kinase TTK (Homo sapiens) (P33981 whole entry): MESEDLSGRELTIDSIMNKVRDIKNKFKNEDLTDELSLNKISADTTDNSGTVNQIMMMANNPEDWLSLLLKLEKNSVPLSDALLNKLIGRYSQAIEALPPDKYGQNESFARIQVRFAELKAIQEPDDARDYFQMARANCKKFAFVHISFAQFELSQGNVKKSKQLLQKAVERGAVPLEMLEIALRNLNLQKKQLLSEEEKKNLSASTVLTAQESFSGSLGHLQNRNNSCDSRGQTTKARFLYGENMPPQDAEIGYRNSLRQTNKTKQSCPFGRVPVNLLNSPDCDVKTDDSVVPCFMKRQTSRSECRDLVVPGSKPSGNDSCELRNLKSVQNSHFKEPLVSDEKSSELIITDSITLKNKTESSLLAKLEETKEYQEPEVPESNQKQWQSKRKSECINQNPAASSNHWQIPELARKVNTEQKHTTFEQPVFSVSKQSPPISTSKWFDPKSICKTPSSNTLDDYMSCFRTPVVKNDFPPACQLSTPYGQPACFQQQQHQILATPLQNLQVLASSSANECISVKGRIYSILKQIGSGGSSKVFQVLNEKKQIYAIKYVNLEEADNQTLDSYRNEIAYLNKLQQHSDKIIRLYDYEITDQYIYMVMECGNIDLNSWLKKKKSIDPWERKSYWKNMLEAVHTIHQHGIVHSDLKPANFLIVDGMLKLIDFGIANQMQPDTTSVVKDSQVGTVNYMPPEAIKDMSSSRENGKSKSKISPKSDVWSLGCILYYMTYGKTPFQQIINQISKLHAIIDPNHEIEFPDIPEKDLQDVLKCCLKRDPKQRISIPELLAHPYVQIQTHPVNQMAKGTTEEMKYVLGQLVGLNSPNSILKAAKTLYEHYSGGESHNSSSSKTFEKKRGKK

[39] = target: Vascular endothelial growth factor receptor 2 (Homo sapiens) (UniProt P35968); conditions: Compound concentration 1000.0 nM
[40] = target: Serine/threonine-protein kinase 32B (Homo sapiens) (UniProt Q9NY57); conditions: Compound concentration 1000.0 nM
[41] = target: Serine/threonine-protein kinase 32C (Homo sapiens) (UniProt Q86UX6); conditions: Compound concentration 1000.0 nM
Sequence of Serine/threonine-protein kinase 32C (Homo sapiens) (Q86UX6 whole entry): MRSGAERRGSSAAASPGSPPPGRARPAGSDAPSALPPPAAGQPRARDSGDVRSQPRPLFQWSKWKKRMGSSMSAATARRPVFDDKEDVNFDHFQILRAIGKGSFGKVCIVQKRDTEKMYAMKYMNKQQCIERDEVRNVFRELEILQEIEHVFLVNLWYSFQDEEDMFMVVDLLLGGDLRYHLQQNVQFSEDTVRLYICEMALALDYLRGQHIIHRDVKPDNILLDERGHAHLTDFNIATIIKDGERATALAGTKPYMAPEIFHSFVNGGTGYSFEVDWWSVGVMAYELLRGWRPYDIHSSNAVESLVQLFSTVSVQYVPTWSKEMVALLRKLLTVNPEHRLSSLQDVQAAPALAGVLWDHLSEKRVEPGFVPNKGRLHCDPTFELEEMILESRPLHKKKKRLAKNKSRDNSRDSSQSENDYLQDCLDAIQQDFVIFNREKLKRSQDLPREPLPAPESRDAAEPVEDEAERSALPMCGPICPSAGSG

[42] = target: Serine/threonine-protein kinase 25 (Homo sapiens) (UniProt O00506); conditions: Compound concentration 1000.0 nM
[43] = target: D(1A) dopamine receptor (Homo sapiens) (UniProt P21728); conditions: Compound concentration 10.0 uM
[44] = target: Alpha-2C adrenergic receptor (Homo sapiens) (UniProt P18825); conditions: Compound concentration 10.0 uM
Sequence of Alpha-2C adrenergic receptor (Homo sapiens) (P18825 whole entry): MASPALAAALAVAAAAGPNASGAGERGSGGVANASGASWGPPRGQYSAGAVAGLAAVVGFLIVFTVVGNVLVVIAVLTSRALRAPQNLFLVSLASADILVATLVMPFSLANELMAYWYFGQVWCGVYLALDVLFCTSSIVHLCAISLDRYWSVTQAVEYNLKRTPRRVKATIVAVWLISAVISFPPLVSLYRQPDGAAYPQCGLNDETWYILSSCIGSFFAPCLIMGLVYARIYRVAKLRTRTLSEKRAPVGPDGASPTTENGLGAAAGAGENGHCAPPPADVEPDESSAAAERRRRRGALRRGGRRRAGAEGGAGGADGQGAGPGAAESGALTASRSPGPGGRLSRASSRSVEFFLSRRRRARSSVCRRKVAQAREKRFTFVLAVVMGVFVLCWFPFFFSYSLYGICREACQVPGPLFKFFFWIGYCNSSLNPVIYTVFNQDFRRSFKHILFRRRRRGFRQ

[45] = target: Muscarinic acetylcholine receptor M5 (Homo sapiens) (UniProt P08912); conditions: Compound concentration 10.0 uM
[46] = target: Sigma non-opioid intracellular receptor 1 (Homo sapiens) (UniProt Q99720); conditions: Compound concentration 10.0 uM

**Q.** What does the source list for O=C(O)[C@@H]1[C@@H](Cn2nnc3ccccc3c2=O)CC[C@H]1C(=O)c1ccc(OCCC2CCOCC2)cc1 [BAY-694]?
**A.** IC50 [1]: 80 nM (not active); residual activity [2]: 95%; residual activity [3]: 100%; residual activity [4]: 97%; residual activity [5]: 88%; residual activity [6]: 93%; residual activity [7]: 100%; residual activity [8]: 100%; residual activity [9]: 90%; residual activity [10]: 94%; residual activity [11]: 100%; residual activity [12]: 100%; residual activity [13]: 87%; residual activity [14]: 100%; residual activity [15]: 89%; residual activity [16]: 100%; residual activity [17]: 100%; residual activity [18]: 100%; residual activity [19]: 95%; residual activity [20]: 93%; residual activity [21]: 70%; residual activity [22]: 100%; residual activity [23]: 100%; residual activity [24]: 100%; residual activity [25]: 100%; residual activity [26]: 100%; residual activity [27]: 100%; residual activity [28]: 98%; residual activity [29]: 100%; residual activity [30]: 100%; residual activity [31]: 92%; residual activity [32]: 100%; residual activity [33]: 100%; residual activity [34]: 85%; residual activity [35]: 100%; residual activity [36]: 100%; residual activity [37]: 100%; residual activity [38]: 89%; residual activity [39]: 78%; residual activity [40]: 100%; residual activity [41]: 100%; residual activity [42]: 87%; inhibition [43]: 4.76%; inhibition [44]: 13.1%; inhibition [45]: 1.82%; inhibition [46]: 29.3%

**Q.** For O=C(O)[C@H]1[C@H](Cn2nnc3ccccc3c2=O)CC[C@@H]1C(=O)c1ccc(OCCC2CCOCC2)cc1 [BAY-7598], which IC50 [1] is on record?
**A.** 0.085 nM (active)

**Q.** What about the residual activity [2] of the same compound?
**A.** 82%

**Q.** And the residual activity [3]?
**A.** 87%

**Q.** And the residual activity [4]?
**A.** 85%

**Q.** What about the residual activity [5] of the same compound?
**A.** 100%

**Q.** What about the residual activity [6] of the same compound?
**A.** 81%

**Q.** What about the residual activity [7] of the same compound?
**A.** 100%

**Q.** What about the residual activity [8] of the same compound?
**A.** 97%

**Q.** And the residual activity [9]?
**A.** 81%

**Q.** What about the residual activity [10] of the same compound?
**A.** 100%

**Q.** And the residual activity [11]?
**A.** 90%

**Q.** And the residual activity [12]?
**A.** 100%

**Q.** And the residual activity [13]?
**A.** 90%

**Q.** What about the residual activity [14] of the same compound?
**A.** 100%

**Q.** What about the residual activity [15] of the same compound?
**A.** 100%

**Q.** What about the residual activity [16] of the same compound?
**A.** 82%

**Q.** And the residual activity [17]?
**A.** 99%

**Q.** What about the residual activity [18] of the same compound?
**A.** 100%

**Q.** And the residual activity [19]?
**A.** 100%

**Q.** And the residual activity [20]?
**A.** 78%

**Q.** And the residual activity [21]?
**A.** 96%

**Q.** What about the residual activity [22] of the same compound?
**A.** 100%

**Q.** And the residual activity [23]?
**A.** 99%

**Q.** And the residual activity [24]?
**A.** 97%

**Q.** What about the residual activity [25] of the same compound?
**A.** 100%

**Q.** And the residual activity [26]?
**A.** 94%

**Q.** And the residual activity [27]?
**A.** 100%

**Q.** What about the residual activity [28] of the same compound?
**A.** 98%

**Q.** What about the residual activity [29] of the same compound?
**A.** 91%

**Q.** What about the residual activity [30] of the same compound?
**A.** 100%

**Q.** What about the residual activity [31] of the same compound?
**A.** 100%

**Q.** What about the residual activity [32] of the same compound?
**A.** 88%

**Q.** What about the residual activity [33] of the same compound?
**A.** 100%

**Q.** What about the residual activity [34] of the same compound?
**A.** 97%

**Q.** And the residual activity [35]?
**A.** 100%

**Q.** What about the residual activity [36] of the same compound?
**A.** 90%

**Q.** And the residual activity [37]?
**A.** 76%

**Q.** What about the residual activity [38] of the same compound?
**A.** 83%

**Q.** And the residual activity [39]?
**A.** 88%

**Q.** And the residual activity [40]?
**A.** 100%

**Q.** And the residual activity [41]?
**A.** 89%

**Q.** And the residual activity [42]?
**A.** 90%

**Q.** And the inhibition [43]?
**A.** 1.16%

**Q.** And the inhibition [44]?
**A.** 8.3%

**Q.** What about the inhibition [45] of the same compound?
**A.** 4.3%

**Q.** What about the inhibition [46] of the same compound?
**A.** 6.09%
